Calls of active or inactive are those of the source. The calls are words filed in the database; no cut-off is given here.
Assays:
UV4 [1] = assay: Hypersensitivity (HF) factor in chinese hamster cell line UV4 [HF= ratio (IC50 in AA8 cells)/(IC50 in UV4 cells)]; assay type: functional, Cricetulus griseus
EMT6 [2] = assay: Evaluated for hypersensitivity (HF) factor in murine mammary carcinoma EMT6 cells as HF=IC50 for AA8/IC50 for the murine mammary carcinoma EMT6; f means inactive at the solubility limit; assay type: functional, cell-based; details: Mus musculus
FME [3] = assay: Hypersensitivity (HF) factor in human melanoma FME cells [HF= ratio (IC50 in AA8 cells)/(IC50 in FME cells)]; assay type: functional
CHO-AA8 [4] = assay: Concentration x time (uM h) to reduce cell survival to 10% of control values under hypoxic conditions by clonogenic assay; assay type: ADME, cell-based, Cricetulus griseus; details: chinese hamster
[5] = Ratio between aerobic CT10 and hypoxic CT10; No aerobic cytotoxicity at the solubility limit
CHO-AA8 [6] = assay: Aerobic growth inhibition in Chinese hamster cell line AA8; assay type: functional, cell-based; details: Cricetulus griseus
UV4 [7] = assay: Evaluated for hypersensitivity (HF) factor in chinese hamster cell line UV4; Evaluated as HF=IC50 for AA8/IC50 for the chinese hamster cell line UV4; f means inactive at solubility limit; assay type: functional, cell-based; details: Cricetulus griseus
FME [8] = assay: Evaluated for hypersensitivity (HF) factor in human melanoma FME cells as HF=IC50 for AA8/IC50 for the human melanoma FME; f means inactive at the solubility limit; assay type: functional, cell-based
CHO-AA8 [9] = assay: Concentration x time (uM h) to reduce cell survival to 10% of control values under hypoxic conditions by clonogenic assay. Inactive at the solubility limit; assay type: ADME, cell-based, Cricetulus griseus; details: chinese hamster
EMT6 [10] = assay: Hypersensitivity (HF) factor in murine mammary carcinoma EMT6 cells [HF= ratio (IC50 in AA8 cells)/(IC50 in EMT6)]; assay type: functional, Mus musculus
[11] = Ratio between aerobic CT10 and hypoxic CT10; assay type: functional

## Cc1ncc([N+](=O)[O-])n1CC(O)Cn1ccnc1[N+](=O)[O-] (stereo not drawn)
UV4 [1]
  HF: >0.85
EMT6 [2]
  HF: Inactive at solubility limit
FME [3]
  HF: >1.11
CHO-AA8 [4]
  CT10: 2400 µM·h
[5]
  selectivity ratio: > 3
CHO-AA8 [6]
  IC50: > 0.8 mM

## O=C(NCCCn1ccnc1[N+](=O)[O-])C(=O)NCCCn1ccnc1[N+](=O)[O-]
UV4 [7]
  HF: Inactive at solubility limit
FME [8]
  HF: Inactive at solubility limit
EMT6 [2]
  HF: Inactive at solubility limit
CHO-AA8 [6]
  IC50: > 0.08 mM
CHO-AA8 [9]
  CT10: > 700 µM·h

## COCC(O)Cn1ccnc1[N+](=O)[O-] (stereo not drawn) [MISONIDAZOLE]
UV4 [1]
  HF: 1.37
EMT6 [10]
  HF: 3.6
[11]
  selectivity ratio: 18
FME [3]
  HF: 1.94
CHO-AA8 [4]
  CT10: 16000 µM·h

## O=C(CCCn1ccnc1[N+](=O)[O-])NCCn1cnc([N+](=O)[O-])n1
UV4 [1]
  HF: 1.19
EMT6 [10]
  HF: 10.7
FME [3]
  HF: 6.9
CHO-AA8 [4]
  CT10: 17000 µM·h
[5]
  selectivity ratio: > 6
CHO-AA8 [6]
  IC50: 6.92 mM

## O=[N+]([O-])c1nccn1CC(O)CNCCBr (stereo not drawn)
UV4 [1]
  HF: 5.85
EMT6 [10]
  HF: 1.55
[11]
  selectivity ratio: 20
FME [3]
  HF: 1
CHO-AA8 [4]
  CT10: 400 µM·h

## Cc1ncc([N+](=O)[O-])n1CCNC(=O)CCC(=O)NCCn1ccnc1[N+](=O)[O-]
UV4 [1]
  HF: 1
EMT6 [10]
  HF: 7.09
FME [3]
  HF: 3.49
CHO-AA8 [4]
  CT10: 47000 µM·h
[5]
  selectivity ratio: > 6
CHO-AA8 [6]
  IC50: 6.6 mM

## Cc1ncc([N+](=O)[O-])n1CCNS(=O)(=O)CCCn1ccnc1[N+](=O)[O-]
UV4 [7]
  HF: Inactive at solubility limit
EMT6 [10]
  HF: >0.84
FME [3]
  HF: >0.91
CHO-AA8 [6]
  IC50: > 40.3 mM

## Cc1ncc([N+](=O)[O-])n1CCNCCCn1ccnc1[N+](=O)[O-]
UV4 [1]
  HF: 1.42
EMT6 [10]
  HF: 4.73
[11]
  selectivity ratio: 14
FME [3]
  HF: 3.61
CHO-AA8 [4]
  CT10: 2400 µM·h
CHO-AA8 [6]
  IC50: 4.74 mM

## O=[N+]([O-])c1nccn1CC(O)CN1CCCCC1 (stereo not drawn) [PIMONIDAZOLE]
UV4 [1]
  HF: 1.37
EMT6 [10]
  HF: 6.3
[11]
  selectivity ratio: 40
FME [3]
  HF: 4.07
CHO-AA8 [4]
  CT10: 3500 µM·h
CHO-AA8 [6]
  IC50: 3.03 mM

## Cc1ncc([N+](=O)[O-])n1CCNC(=O)CCCn1ccnc1[N+](=O)[O-]
UV4 [1]
  HF: 1.38
EMT6 [10]
  HF: 4.64
[11]
  selectivity ratio: 8
FME [3]
  HF: 3.51
CHO-AA8 [4]
  CT10: 12000 µM·h

## O=C(CCCn1cnc([N+](=O)[O-])n1)NCCn1ccnc1[N+](=O)[O-]
UV4 [1]
  HF: 1.17
EMT6 [10]
  HF: 1.76
FME [3]
  HF: >1.9
CHO-AA8 [4]
  CT10: 15000 µM·h
[5]
  selectivity ratio: > 1
CHO-AA8 [6]
  IC50: 1.71 mM

## CN(CCCn1ccnc1[N+](=O)[O-])CCCn1ccnc1[N+](=O)[O-]
UV4 [1]
  HF: 0.97
EMT6 [10]
  HF: 2.6
[11]
  selectivity ratio: 40
FME [3]
  HF: 2.55
CHO-AA8 [4]
  CT10: 700 µM·h
CHO-AA8 [6]
  IC50: 0.81 mM

## Cc1ncc([N+](=O)[O-])n1CCN(C)CCCCn1ccnc1[N+](=O)[O-]
UV4 [1]
  HF: 0.98
EMT6 [10]
  HF: 1.44
[11]
  selectivity ratio: 8
FME [3]
  HF: 1.54
CHO-AA8 [4]
  CT10: 2000 µM·h
CHO-AA8 [6]
  IC50: 1 mM

## Cc1ncc([N+](=O)[O-])n1CCNCCCCn1ccnc1[N+](=O)[O-]
UV4 [1]
  HF: 1.07
EMT6 [10]
  HF: 2.12
[11]
  selectivity ratio: 12
FME [3]
  HF: 1.27
CHO-AA8 [4]
  CT10: 2400 µM·h
CHO-AA8 [6]
  IC50: 2 mM

## Cc1ncc([N+](=O)[O-])n1CC(O)Cn1cnc([N+](=O)[O-])n1 (stereo not drawn)
UV4 [1]
  HF: 1.16
EMT6 [10]
  HF: 4.85
FME [3]
  HF: 3.63
CHO-AA8 [4]
  CT10: > 47000 µM·h
CHO-AA8 [6]
  IC50: 2.3 mM

## Cc1ncc([N+](=O)[O-])n1CCNS(=O)(=O)CCCn1cnc([N+](=O)[O-])n1
UV4 [1]
  HF: <1.35
EMT6 [10]
  HF: <1.35
FME [3]
  HF: 1.19
CHO-AA8 [6]
  IC50: 1.14 mM

## O=[N+]([O-])c1nccn1CCCNCCCn1ccnc1[N+](=O)[O-]
UV4 [1]
  HF: 0.9
EMT6 [10]
  HF: 5.37
[11]
  selectivity ratio: 40
FME [3]
  HF: 2.58
CHO-AA8 [4]
  CT10: 2300 µM·h
CHO-AA8 [6]
  IC50: 1.18 mM

## O=C(CCCn1cnc([N+](=O)[O-])n1)NCCCn1ccnc1[N+](=O)[O-]
UV4 [1]
  HF: 1.25
EMT6 [10]
  HF: 8.38
[11]
  selectivity ratio: 3.5
FME [3]
  HF: 5.94
CHO-AA8 [4]
  CT10: 17000 µM·h
CHO-AA8 [6]
  IC50: 5.28 mM

## C[N+](C)(CCCn1ccnc1[N+](=O)[O-])CCCn1ccnc1[N+](=O)[O-].[I-]
UV4 [1]
  HF: 0.89
EMT6 [10]
  HF: 24.2
[11]
  selectivity ratio: 10
FME [3]
  HF: 4.85
CHO-AA8 [4]
  CT10: 23000 µM·h
CHO-AA8 [6]
  IC50: 3.65 mM

## Cc1ncc([N+](=O)[O-])n1CCN(C)C(=O)CCCn1ccnc1[N+](=O)[O-]
UV4 [1]
  HF: 1.05
EMT6 [10]
  HF: 2.09
[11]
  selectivity ratio: > 18
FME [3]
  HF: 2.83
CHO-AA8 [4]
  CT10: 7200 µM·h
CHO-AA8 [6]
  IC50: 4.8 mM

## O=[N+]([O-])c1nccn1CC1OC(n2ccnc2[N+](=O)[O-])C(O)C(O)C1O (stereo not drawn)
UV4 [1]
  HF: 0.89
EMT6 [10]
  HF: <0.8
FME [3]
  HF: 2.44
CHO-AA8 [4]
  CT10: 57000 µM·h
[5]
  selectivity ratio: > 1.5
CHO-AA8 [6]
  IC50: 7.4 mM

## Cc1ncc([N+](=O)[O-])n1CCNC(=O)CCCn1cnc([N+](=O)[O-])n1
UV4 [1]
  HF: 1.2
EMT6 [10]
  HF: 4.94
[11]
  selectivity ratio: > 1.3
FME [3]
  HF: 4.51
CHO-AA8 [4]
  CT10: 100000 µM·h
CHO-AA8 [6]
  IC50: 6.42 mM

— ChEMBL document CHEMBL1128381, “Hypoxia-selective antitumor agents. 10. bis(nitroimidazoles) and related Bis(nitroheterocycles): development of derivatives with higher rates of metabolic activation under hypoxia and improved aqueous solubility” (J Med Chem, 1995)
